Laboratory results taken from US11111240B2, “Sultam compound and application method thereof” (Chia Tai Tianqing Pharmaceutical Group Co., Ltd., priority 2016, dated 2021).

biological target: IDH1 (R132H) (Homo sapiens (Human), UniProt O75874, R132H); assay: Enzyme assay, IDH1m inhibition (NADPH decrease, diaphorase/resazurin); format: biochemical; conditions: 40 nM enzyme, 16 h pre-incubation at 23° C.
Description: Resazurin is a traditional redox dye, and after a redox reaction, it can be reduced from a blue resazurin without fluorescence to a pink fluorescent substance, resorufin, which can be measured and quantified with relative fluorescence unit (RFU) of fluorophotometer (Ex=530-570 nm, Em=590-620 nm). At present, resazurin is widely used for determining the viability of bacteria, cells, etc. and the enzyme activity detection of oxidoreductase. We detected the decrease of cofactor NADPH to determine the inhibitory activity of a compound against IDH1m and detected the generation of cofactor NADPH to determine the inhibitory activity of a compound against IDH WT. The compound was pre-incubated with IDH1m and NADPH, and then the reaction was initiated by adding α-KG and performed for certain time under a linear condition. Then, diaphorase (lipoamide dehydrogenase) and the corresponding substrate resazurin were added thereto for detection. Lipoamide dehydrogenase terminated the IDH1m reaction by decreasing the available cofactor NADPH, which oxidized NADPH to NADP, and reduced resazurin to high fluorescent resorufin. The amount of the remaining cofactor NADPH after a specific reaction time was quantified via an easily detectable fluorophore.
The specific operation was as follows: 2.5 μl of the compound diluted in a 3-fold gradient was added to a 384-well plate, followed by adding 5 μl of the reaction buffer (20 mM Tris-HCl, pH 7.5; 150 mM NaCl; 10 mM MgCl2; 0.4 mg/mL BSA (Bovine Serum Albumin) and 2 mM DTT (dithiothreitol)) containing 40 nM IDH1 (R132H/R132C) and 20 μM NADPH. Then, the above test mixture was incubated at 23° C. for 16 hours, and then 2.5 μl of the reaction buffer containing 4 mM α-KG was added to initiate the reaction. After they were incubated for 60 minutes at room temperature, 5 μl of the termination mixture (0.4 U/ml diaphorase and 20 μM resazurin) formulated with the reaction buffer was added to convert resazurin to resorufin, so as to measure the amount of the remaining NADPH. After incubating at 23° C. for 10 minutes, fluorescence values were determined through Flexstation 3 at Ex535/Em595. The enzyme activity of each compound was respectively determined at 12 concentrations, and the data were calculated using the software GraFit6.0 (Erithacus Software) to obtain the IC50 value of each compound.

Chain of IDH1 (R132H) (O75874 whole entry R132H): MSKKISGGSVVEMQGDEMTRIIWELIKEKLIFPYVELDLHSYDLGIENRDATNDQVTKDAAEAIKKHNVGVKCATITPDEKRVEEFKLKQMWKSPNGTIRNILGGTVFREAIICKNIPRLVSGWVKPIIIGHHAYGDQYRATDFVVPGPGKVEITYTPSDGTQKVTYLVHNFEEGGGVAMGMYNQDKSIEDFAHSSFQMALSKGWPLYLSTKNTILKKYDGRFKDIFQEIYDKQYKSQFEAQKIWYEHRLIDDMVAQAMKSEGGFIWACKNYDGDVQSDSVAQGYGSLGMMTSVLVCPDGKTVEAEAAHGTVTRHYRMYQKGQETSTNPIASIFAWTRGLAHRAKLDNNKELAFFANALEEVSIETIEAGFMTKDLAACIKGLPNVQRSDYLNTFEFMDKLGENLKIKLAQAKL

IC50 [nM]	SMILES
< 10000	N#Cc1ccnc(N2[C@H](C(=O)N(c3cncc(F)c3)[C@@H](C(=O)NC3CC(F)(F)C3)c3ccccc3Cl)CCS2(=O)=O)c1 [Example 1, (S)—N—((R)-1-(2-chlorophenyl)-2-((3,3-difluorocyclobutyl)amino)-2-oxoethyl)-2-(4-cyanopyridin-2-yl)-N-(5-fluoropyridin-3-yl)-isothiazolidine-3-carboxamide 1,1-dioxide]
< 500	N#Cc1ccnc(N2[C@H](C(=O)N(c3cc(F)cc(F)c3)[C@@H](C(=O)NC3CC(F)(F)C3)c3ccccc3Cl)CCS2(=O)=O)c1 [Example 3, (S)—N—((R)-1-(2-chlorophenyl)-2-((3,3-difluorocyclobutyl)amino)-2-oxoethyl)-2-(4-cyanopyridin-2-yl)-N-(3,5-difluorophenyl)-isothiazolidine-3-carboxamide 1,1-dioxide]
< 20	N#Cc1ccnc(N2[C@H](C(=O)N(c3cc(F)cc(F)c3)[C@H](C(=O)NC3CC(F)(F)C3)c3ccccc3Cl)CCS2(=O)=O)c1 [Example 4, (S)—N—((S)-1-(2-chlorophenyl)-2-((3,3-difluorocyclobutyl)amino)-2-oxoethyl)-2-(4-cyanopyridin-2-yl)-N-(3,5-difluorophenyl)-isothiazolidine-3-carboxamide 1,1-dioxide]
< 1000	N#Cc1ccnc(N2[C@H](C(=O)N(c3cccc(C(F)(F)F)c3)[C@@H](C(=O)NC3CC(F)(F)C3)c3ccccc3Cl)CCS2(=O)=O)c1 [Example 5, (S)—N—((R)-1-(2-chlorophenyl)-2-((3,3-difluorocyclobutyl)amino)-2-oxoethyl)-2-(4-cyanopyridin-2-yl)-N-(3-trifluoromethylphenyl)-isothiazolidine-3-carboxamide 1,1-dioxide]
< 20	N#Cc1ccnc(N2[C@H](C(=O)N(c3cccc(C(F)(F)F)c3)[C@H](C(=O)NC3CC(F)(F)C3)c3ccccc3Cl)CCS2(=O)=O)c1 [Example 6, (S)—N—((S)-1-(2-chlorophenyl)-2-((3,3-difluorocyclobutyl)amino)-2-oxoethyl)-2-(4-cyanopyridin-2-yl)-N-(3-trifluoromethylphenyl)-isothiazolidine-3-carboxamide 1,1-dioxide]
< 500	N#Cc1cc(F)cc(N(C(=O)[C@@H]2CCS(=O)(=O)N2c2cc(C#N)ccn2)[C@@H](C(=O)NC2CC(F)(F)C2)c2ccccc2Cl)c1 [Example 7, (S)—N—((R)-1-(2-chlorophenyl)-2-((3,3-difluorocyclobutyl)amino)-2-oxoethyl)-2-(4-cyanopyridin-2-yl)-N-(3-cyano-5-fluorophenyl)-isothiazolidine-3-carboxamide 1,1-dioxide]
< 20	N#Cc1cc(F)cc(N(C(=O)[C@@H]2CCS(=O)(=O)N2c2cc(C#N)ccn2)[C@H](C(=O)NC2CC(F)(F)C2)c2ccccc2Cl)c1 [Example 8, (S)—N—((S)-1-(2-chlorophenyl)-2-((3,3-difluorocyclobutyl)amino)-2-oxoethyl)-2-(4-cyanopyridin-2-yl)-N-(3-cyano-5-fluorophenyl)-isothiazolidine-3-carboxamide 1,1-dioxide]
< 1000	N#Cc1ccnc(N2[C@H](C(=O)N(c3ccc(F)c(F)c3)[C@@H](C(=O)NC3CC(F)(F)C3)c3ccccc3Cl)CCS2(=O)=O)c1 [Example 9, (S)—N—((R)-1-(2-chlorophenyl)-2-((3,3-difluorocyclobutyl)amino)-2-oxoethyl)-2-(4-cyanopyridin-2-yl)-N-(3,4-difluorophenyl)-isothiazolidine-3-carboxamide 1,1-dioxide]
< 20	N#Cc1ccnc(N2[C@H](C(=O)N(c3ccc(F)c(F)c3)[C@H](C(=O)NC3CC(F)(F)C3)c3ccccc3Cl)CCS2(=O)=O)c1 [Example 10, (S)—N—((S)-1-(2-chlorophenyl)-2-((3,3-difluorocyclobutyl)amino)-2-oxoethyl)-2-(4-cyanopyridin-2-yl)-N-(3,4-difluorophenyl)-isothiazolidine-3-carboxamide 1,1-dioxide]
< 500	N#Cc1ccnc(N2[C@H](C(=O)N(c3cccc(F)c3)[C@@H](C(=O)NC3CC(F)(F)C3)c3ccccc3Cl)CCS2(=O)=O)c1 [Example 11, (S)—N—((R)-1-(2-chlorophenyl)-2-((3,3-difluorocyclobutyl)amino)-2-oxoethyl)-2-(4-cyanopyridin-2-yl)-N-(3-fluorophenyl)-isothiazolidine-3-carboxamide 1,1-dioxide]
< 1000	O=C(NC1CCCCC1)[C@@H](c1ccccc1Cl)N(C(=O)[C@@H]1CCS(=O)(=O)N1c1ncccn1)c1cccc(F)c1 [Example 13, (S)—N—((R)-1-(2-chlorophenyl)-2-(cyclohexylamino)-2-oxoethyl)-2-(pyrimidin-2-yl)-N-(3-fluorophenyl)-isothiazolidine-3-carboxamide 1,1-dioxide]
< 20	O=C(NC1CCCCC1)[C@H](c1ccccc1Cl)N(C(=O)[C@@H]1CCS(=O)(=O)N1c1ncccn1)c1cccc(F)c1 [Example 14, (S)—N—((S)-1-(2-chlorophenyl)-2-(cyclohexylamino)-2-oxoethyl)-2-(pyrimidin-2-yl)-N-(3-fluorophenyl)-isothiazolidine-3-carboxamide 1,1-dioxide]
< 500	N#Cc1ccnc(N2[C@H](C(=O)N(c3cccc(F)c3)[C@@H](C(=O)NC3CCCCC3)c3ccccc3Cl)CCS2(=O)=O)c1 [Example 15, (S)—N—((R)-1-(2-chlorophenyl)-2-(cyclohexylamino)-2-oxoethyl)-2-(4-cyanopyridin-2-yl)-N-(3-fluorophenyl)-isothiazolidine-3-carboxamide 1,1-dioxide]
< 20	N#Cc1ccnc(N2[C@H](C(=O)N(c3cccc(F)c3)[C@H](C(=O)NC3CCCCC3)c3ccccc3Cl)CCS2(=O)=O)c1 [Example 16, (S)—N—((S)-1-(2-chlorophenyl)-2-(cyclohexylamino)-2-oxoethyl)-2-(4-cyanopyridin-2-yl)-N-(3-fluorophenyl)-isothiazolidine-3-carboxamide 1,1-dioxide]
< 10000	O=C(NC1CCCCC1)[C@@H](c1ccccc1Cl)N(C(=O)[C@@H]1CCS(=O)(=O)N1c1cc(F)ccn1)c1cccc(F)c1 [Example 17, (S)—N—((R)-1-(2-chlorophenyl)-2-(cyclohexylamino)-2-oxoethyl)-2-(4-fluoropyridin-2-yl)-N-(3-fluorophenyl)-isothiazolidine-3-carboxamide 1,1-dioxide]
< 100	O=C(NC1CCCCC1)[C@H](c1ccccc1Cl)N(C(=O)[C@@H]1CCS(=O)(=O)N1c1cc(F)ccn1)c1cccc(F)c1 [Example 18, (S)—N—((S)-1-(2-chlorophenyl)-2-(cyclohexylamino)-2-oxoethyl)-2-(4-fluoropyridin-2-yl)-N-(3-fluorophenyl)-isothiazolidine-3-carboxamide 1,1-dioxide]
< 1000	C#Cc1ccnc(N2[C@H](C(=O)N(c3cccc(F)c3)C(C(=O)NC3CCCCC3)c3ccccc3Cl)CCS2(=O)=O)c1 (stereo partly drawn) [Example 19, (3S)—N-(1-(2-chlorophenyl)-2-(cyclohexylamino)-2-oxoethyl)-N-(3-fluorophenyl)-2-(4-ethynylpyridin-2-yl)isothiazolidine-3-carboxamide 1,1-dioxide]
< 20	N#Cc1ccnc(NS(=O)(=O)c2cccc(N(C(=O)[C@@H]3CCS(=O)(=O)N3c3cc(C#N)ccn3)C(C(=O)NC3CCCCC3)c3ccccc3Cl)c2)c1 (stereo partly drawn) [Example 20, (3S)—N-(1-(2-chlorophenyl)-2-(cyclohexylamino)-2-oxoethyl)-2-(4-cyanopyridin-2-yl)-N-(3-(N-(4-cyanopyridin-2-yl)aminosulfonyl)phenyl)-isothiazolidine-3-carboxamide 1,1-dioxide]
< 10000	N#Cc1cccc(CN2[C@H](C(=O)N(c3cccc(F)c3)C(C(=O)NC3CCCCC3)c3ccccc3Cl)CCS2(=O)=O)c1 (stereo partly shown) [Example 21]
< 1000	N#Cc1ccnc(N2[C@H](C(=O)N(c3cccc(F)c3)[C@@H](C(=O)NC3CCC(F)(F)CC3)c3ccccc3Cl)CCS2(=O)=O)c1 [Example 22]
< 20	N#Cc1ccnc(N2[C@H](C(=O)N(c3cccc(F)c3)[C@H](C(=O)NC3CCC(F)(F)CC3)c3ccccc3Cl)CCS2(=O)=O)c1 [Example 23, (S)—N—((S)-1-(2-chlorophenyl)-2-((4,4-difluorocyclohexyl)amino)-2-oxoethyl)-2-(4-cyanopyridin-2-yl)-N-(3-fluorophenyl)-isothiazolidine-3-carboxamide 1,1-dioxide]
< 20	N#Cc1ccnc(N2[C@H](C(=O)N(c3cccc(F)c3)[C@H](C(=O)NC3CC(F)(F)C3)c3ccccc3Cl)CNS2(=O)=O)c1 [Example 24, (S)—N—((S)-1-(2-chlorophenyl)-2-((3,3-difluorocyclobutyl)amino)-2-oxoethyl)-2-(4-cyanopyridin-2-yl)-N-(3-fluorophenyl)-1,2,5-thiadiazolidine-3-carboxamide 1,1-dioxide]
